Data on one compound can be found in US20100111965A1, “COMBINATION THERAPY” (FUSION ANTIBODIES LIMITED, priority 2006, published 2010).

For one assay, the system named is HCT116 +/+. Nature of the assay: Western blot of AREG protein in HCT116 lysates after chemotherapy. The format is cell-based, human. Conditions: HCT116 p53 wild type lysates; 48 hour treatment. How it is done: FIG. 2 illustrates western blot analysis of AREG and gamma tubulin protein expression in HCT116 +/+ and RKO +/+ with/without a 48 hour CPT11 or 5-Fu treatment; HCT 116, RKO, HT 29 and H630 are human colorectal carcinoma cell lines. After different time exposure to chemotherapy the cells were harvested, and washed in 1×PBS. The cell pellet was then lysed in a suitable amount of 1×RIPA lysis buffer (150 mM NaCl, 10 mM Tris at pH 7.2, 0.1% SDS, 1.0% triton X-100 and 5 mM.EDTA) supplemented with protease inhibitors. The cell lysate was briefly vortexed, incubated on ice for 10 min and then centrifuged at 12,000 rpm to remove cell debris. Following centrifugation, the lysate supernatant was removed to a fresh eppendorf tube. Protein concentrations were assayed using the BCA Protein Assay (Pierce) according to the manufacturer's instructions. The absorbance of each sample at 620 nm was assayed using a microplate reader. A standard BSA curve was plotted for each experiment and the protein concentration of each sample calculated. To each sample an equal volume of 5× Western sample buffer and 10% of the final volume of β-mercaptoethanol (Sigma) was added. The samples were denatured at 95° C. for 5 minutes and placed on ice prior to loading onto SDS polyacrylamide gel (SDS PAGE). […] Protein bands were detected by exposure to autoradiograph which was subsequently developed. […]
In general terms: A western blot detects proteins with antibodies after separation by electrophoresis.

Assay [1] relates to H630 p53 mutant colorectal cancer cell. Kind of assay: Western blot of AREG protein in H630 p53 mutant lysates after chemotherapy. The format is cell-based, human. Conditions: 48 hour treatment, two separate experiments. How it is done:
FIG. 4 illustrates analysis of AREG protein 14, expression in H630 p53 mutant colorectal cancer cell lysates following a 48 hour CPT11 treatment. Western blots were probed using an anti-amphiregulin antibody. […] HCT 116, RKO, HT 29 and H630 are human colorectal carcinoma cell lines. After different time exposure to chemotherapy the cells were harvested, and washed in 1×PBS. The cell pellet was then lysed in a suitable amount of 1×RIPA lysis buffer (150 mM NaCl, 10 mM Tris at pH 7.2, 0.1% SDS, 1.0% triton X-100 and 5 mM.EDTA) supplemented with protease inhibitors. The cell lysate was briefly vortexed, incubated on ice for 10 min and then centrifuged at 12,000 rpm to remove cell debris. Following centrifugation, the lysate supernatant was removed to a fresh eppendorf tube. Protein concentrations were assayed using the BCA Protein Assay (Pierce) according to the manufacturer's instructions. The absorbance of each sample at 620 nm was assayed using a microplate reader. A standard BSA curve was plotted for each experiment and the protein concentration of each sample calculated. To each sample an equal volume of 5× Western sample buffer and 10% of the final volume of β-mercaptoethanol (Sigma) was added. […] Protein bands were detected by exposure to autoradiograph which was subsequently developed. […]

With `CCc1c2c(nc3ccc(OC(=O)N4CCC(N5CCCCC5)CC4)cc13)-c1cc3c(c(=O)n1C2)COC(=O)[C@]3(O)CC` [CPT-11, irinotecan], the “AREG protein expression (western blot)” value (in the assay with HCT116 +/+; in assay [1]) was “Enhanced AREG expression” in each case.
